Key:
[1] = tested on: mock-transfected CHO cells; assay: cAMP and IP release in mock-transfected CHO cells; assay type: cell-based, Chinese hamster
Protocol: CHO cells are grown on 150 mm plates in HAM's F-12 medium with supplements (10% bovine calf serum, 4 mM L-glutamine and 100 units/ml penicillin/100 μg/ml streptomycin) at 37° C., 5% CO2. Stock plates of CHO cells are trypsinized and split 1:8 every 3–4 days.
(§1) A typical protocol for the electroporation method as applied to Cos-7 cells is described as follows. Cells to be used for transfection are split 24 hours prior to the transfection to provide flasks which are subconfluent at the time of transfection. The cells are harvested by trypsinization resuspended in their growth media and counted. 5×10^6 cells are suspended in 300 μl of DMEM and placed into an electroporation cuvette. 8 μg of receptor DNA plus 8 μg of any additional DNA needed (e.g. G protein expression vector, reporter construct, antibiotic resistance marker, mock vector, etc.) is added to the cell suspension, the cuvette is placed into a BioRad Gene Pulser and subjected to an electrical pulse (Gene Pulser settings: 0.25 kV voltage, 950 μF capacitance). […]
(§2) The receptor-mediated stimulation or inhibition of cyclic AMP (cAMP) formation may be assayed in cells expressing the receptors. […] The plates are stored at 4° C. for 15 min, and the cAMP content in the stopping solution is measured by radioimmunoassay. Radioactivity may be quantified using a gamma counter equipped with data reduction software. […]

[2] = biological target: T1, SNORF25 receptor (UniProt Q7TQN8); assay: cAMP release in Cos-7 cells transiently transfected with SNORF25; assay type: cell-based; conditions: SNORF25 transiently transfected Cos-7 cells (FIG. 8)
T1 construct: Emax of cAMP response
T1 sequence (Q7TQN8 1-468): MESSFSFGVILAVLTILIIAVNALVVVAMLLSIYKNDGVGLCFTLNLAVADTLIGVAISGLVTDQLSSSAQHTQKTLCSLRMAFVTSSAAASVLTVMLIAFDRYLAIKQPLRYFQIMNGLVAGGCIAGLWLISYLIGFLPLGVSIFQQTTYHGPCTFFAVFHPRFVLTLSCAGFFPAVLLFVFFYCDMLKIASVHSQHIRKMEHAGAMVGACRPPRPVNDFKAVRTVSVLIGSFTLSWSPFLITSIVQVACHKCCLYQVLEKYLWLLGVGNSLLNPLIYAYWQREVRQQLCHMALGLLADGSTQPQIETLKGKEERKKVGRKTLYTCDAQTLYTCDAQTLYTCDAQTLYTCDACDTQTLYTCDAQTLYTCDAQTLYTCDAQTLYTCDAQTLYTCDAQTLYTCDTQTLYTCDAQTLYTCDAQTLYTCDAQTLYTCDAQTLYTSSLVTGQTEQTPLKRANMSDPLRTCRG
Protocol: COS-7 cells are grown on 150 mm plates in DMEM with supplements (Dulbecco's Modified Eagle Medium with 10% bovine calf serum, 4 mM glutamine, 100 units/ml penicillin/100 μg/ml streptomycin) at 37° C., 5% CO2. Stock plates of COS-7 cells are trypsinized and split 1:6 every 3–4 days.
as §1, §2

[3] = biological target: T2, SNORF25 (Homo sapiens, UniProt Q8TDV5); assay: CFTR Cl- currents in Xenopus oocytes co-injected with SNORF25 and CFTR mRNA; assay type: cell-based; design: from linearized plasmids or PCR products containing the complete coding region of the genes; expressed in transfected cells; host or cells: Xenopus laevis oocytes injected with SNORF25 mRNA (with or without CFTR mRNA)
T2 sequence (Q8TDV5 1-335): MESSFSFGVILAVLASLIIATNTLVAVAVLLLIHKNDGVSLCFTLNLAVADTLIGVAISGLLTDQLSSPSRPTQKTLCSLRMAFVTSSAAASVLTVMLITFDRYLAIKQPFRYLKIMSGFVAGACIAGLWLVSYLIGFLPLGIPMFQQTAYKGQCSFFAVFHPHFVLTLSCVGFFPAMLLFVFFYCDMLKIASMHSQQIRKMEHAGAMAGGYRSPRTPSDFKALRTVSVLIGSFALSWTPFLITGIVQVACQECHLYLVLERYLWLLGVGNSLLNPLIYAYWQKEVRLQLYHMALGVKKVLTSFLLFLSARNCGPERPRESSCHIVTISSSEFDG
Protocol: Oocytes are harvested from Xenopus laevis and injected with mRNA transcripts as previously described (Quick and Lester, 1994; Smith et al., 1997). The test receptor of this invention and Gα subunit RNA transcripts are synthesized using the T7 polymerase (“Message Machine,” Ambion) from linearized plasmids or PCR products containing the complete coding region of the genes. Oocytes are injected with 10 ng synthetic receptor RNA and incubated for 3–8 days at 17 degrees. Three to eight hours prior to recording, oocytes are injected with 500 pg promiscuous Gα subunits mRNA in order to observe coupling to Ca^++ activated Cl^− currents.
Each of the compounds was tested at 10 μM. Oocytes expressing SNORF25 generated inward Cl^− currents, consistent with CFTR activation, in response to all four of the ligands.
The activity of SNORF25 was therefore tested in oocytes co-injected with mRNA encoding SNORF25 and mRNA encoding CFTR. In 17 out of 39 of these oocytes an inward Cl^− current (105±20 nA) was measured in response to the application of 10 μM all-trans-retinoic acid (See FIGS. 9A–9C and 10).

[4] = biological target: T3, serotonin 5-HT4 receptor (Homo sapiens, UniProt Q13639); assay: cAMP in Cos-7 cells transfected with serotonin 5-HT4 receptor; assay type: cell-based; conditions: 10 μM, serotonin 5-HT4 (FIG. 7)
T3 construct: expressed in transfected cells; host or cells: Cos-7 cells
Protocol: as §1, with “capacitance). Following the pulse, 800 μl of complete DMEM is added to each cuvette and the suspension transferred to a sterile tube. Complete medium is added to each tube to bring the final cell concentration to 1×10^5 cells/100 μl.” for “capacitance).”
as §2

T3 sequence (Q13639 whole entry): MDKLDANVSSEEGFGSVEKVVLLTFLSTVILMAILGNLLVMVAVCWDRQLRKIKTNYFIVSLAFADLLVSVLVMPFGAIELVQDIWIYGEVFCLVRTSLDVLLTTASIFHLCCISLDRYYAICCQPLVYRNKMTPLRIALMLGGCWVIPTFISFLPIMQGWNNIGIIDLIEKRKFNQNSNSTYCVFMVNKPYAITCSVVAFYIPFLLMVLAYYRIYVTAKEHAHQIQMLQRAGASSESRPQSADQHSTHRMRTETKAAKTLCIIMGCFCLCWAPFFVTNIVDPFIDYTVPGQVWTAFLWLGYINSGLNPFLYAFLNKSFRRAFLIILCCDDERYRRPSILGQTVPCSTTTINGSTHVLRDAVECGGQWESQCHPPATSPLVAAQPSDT

SMILES: CC1=C(/C=C/C(C)=C/C=C/C(C)=C/C(=O)O)C(C)(C)CCC1 [ATRA, all-trans-retinoic acid]
- cAMP and IP release in mock-transfected CHO cells [1]: without affecting these parameters
- Emax of cAMP response [2]: 200–300%
- inward Cl- current amplitude ([3]; 10 μM, oocytes with SNORF25 and CFTR mRNA): 105±20 nA
- delay for activation of CFTR ([3]; SNORF25-expressing oocytes): ~10 s
- cAMP response [4]: no response
